This is an account of results in patent publication US11873319B2, “Cyclic di-nucleotide induction of type I interferon” (The Regents of the University of California, priority 2013, dated 2024).

Experiment [1] concerns the target hSTING (Homo sapiens, UniProt Q86WV6). As to conditions: Conlon et al.; cited from earlier work.
For experiment [2] the following is noted: human clinical trials; cited from earlier work.
Experiment [3] concerns variant STING alleles. The experiment can be described thus: UV crosslinking binding assay of variant STING alleles to 32P-c-di-GMP. On the set-up: species or system mouse and human. As to conditions: lysates of transfected 293T cells, FIG. 3B. The protocol:
FIG. 1, panels A-F show the variable responsiveness of human STING variants to cyclic-di-nucleotides maps to arginine 232. (Panel A) THP-1 cells were transduced with vectors encoding an shRNA targeting STING or a control shRNA. Cells were then stimulated with cyclic-di-GMP (cdG), dsDNA, cyclic-di-AMP (cdA), poly-inosine:cytosine (pI:C), or Sendai Virus, and induction of human interferon-β mRNA was assessed by quantitative reverse transcriptase PCR. (Panel B) Western blotting confirmed that knockdown of STING was effective. (Panel C) HEK293T cells were transfected with the indicated amounts of various mouse (m) or human (h) STING expression plasmid and then stimulated 6 h later by transfection with synthetic cdG (5 μM). […] STING activation was assessed by use of a co-transfected IFN-luciferase reporter construct. […] IFN induction was measured by qRT-PCR. ND, not detected. […] Binding was quantified by autoradiography. […]
(Panel A) 293T cells were transfected with the indicated alleles of mouse (m)STING or human (h)STING and were then stimulated with c-di-GMP (cdG). STING activity was detected by the induction of a co-transfected IFN-luciferase reporter construct and expressed as fold-induction over luciferase activity of unstimulated cells. (Panel B) Lysates of transfected 293T cells were UV crosslinked in the presence of α32P-c-di-GMP, resolved by SDS-PAGE, and then analyzed by autoradiography. […]

hSTING, sequence (Q86WV6 whole entry): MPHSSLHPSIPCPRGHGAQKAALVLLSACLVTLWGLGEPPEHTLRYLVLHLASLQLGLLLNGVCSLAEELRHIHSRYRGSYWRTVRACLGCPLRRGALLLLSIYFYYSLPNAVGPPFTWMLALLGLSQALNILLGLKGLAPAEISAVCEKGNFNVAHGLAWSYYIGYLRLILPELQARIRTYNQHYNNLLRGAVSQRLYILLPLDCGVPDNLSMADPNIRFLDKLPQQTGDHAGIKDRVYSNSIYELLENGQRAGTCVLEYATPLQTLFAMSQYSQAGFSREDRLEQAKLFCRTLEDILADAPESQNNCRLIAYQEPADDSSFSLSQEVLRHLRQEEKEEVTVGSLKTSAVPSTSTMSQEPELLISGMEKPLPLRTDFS

On to `Cc1ccc2c(=O)c3cccc(CC(=O)O)c3oc2c1C` [DMXAA], for which, in experiment [1], the “stimulation of hSTING” value is on record as “unable to stimulate”. The efficacy in humans result in experiment [2] was “not found to be efficacious”. Take `Nc1nc2c(ncn2[C@@H]2O[C@@H]3COP(=O)(O)O[C@H]4[C@@H](O)[C@H](n5cnc6c(=O)[nH]c(N)nc65)O[C@@H]4COP(=O)(O)O[C@H]3[C@H]2O)c(=O)[nH]1` [cyclic-di-GMP]: in experiment [3], the “binding to variant STING alleles” value is “bound”.
